Experimental data from PubChem BioAssay AID720668 (NMMLSC, 2013).
Active and inactive are the calls of the source.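 How the source made its calls: active means MAPK inhibition above 50%; inactive means inhibition below 50%.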

Tested on: ERK MAP kinase activity (EKAR reporter), human
Experiment: blockers of ERK reporter and Cdc25C phosphorylation – TALL-104 cells, EKAR, flow cytometry, CherryPick01, mechanism study for lytic granule exocytosis inhibitor project, late-stage follow-up (AID 720668)
Details: EKAR/pCdc25C flow cytometry, PMA/thapsigargin, at 30 µM, hits give high values

inhibition | Compound
-4% (inactive) | COc1ccc(N2C(=O)CC(Sc3nnc(-c4ccccc4)o3)C2=O)cc1 (configuration not stated)
-1.6% (inactive) | O=c1c2ccccc2sn1-c1ccccc1
-6.4% (inactive) | Cc1ccc(Nc2nc(NCc3ccco3)c3ccccc3n2)cc1
-15.1% (inactive) | Cc1ccc(S(=O)(=O)n2ccc3c(OCCOCCNCc4ccc(F)cc4)cccc32)cc1
13.3% (inactive) | COc1ccc(-n2sc3ccccc3c2=O)cc1
-6.6% (inactive) | CN(C)CCNC(=O)c1ccc(-c2cn3c(-c4ccc(Oc5ccccc5)cc4)cnc3cn2)cc1
-9.9% (inactive) | COc1ccccc1CNc1nc(NCc2ccc(C(C)C)cc2)c2sccc2n1
4.6% (inactive) | O=C(Cn1sc2ccccc2c1=O)Nc1ccc(F)cc1

More lines, now with the values behind:

Compound | inhibition
CCCCC[C@@H](C)N1C[C@@H](COCc2ccccc2)Oc2cc(N3CC[C@@H](N(C)C)C3)ccc2S1(=O)=O | 7.3% (inactive)
COC(=O)c1c(NC(=O)c2nc3ccccc3s2)sc2c1CC(C)(C)NC2(C)C | 14.4% (inactive)
CCCCC[C@@H](C)N1C[C@H](COCc2ccccc2)Oc2cc(N3CC[C@@H](N(C)C)C3)ccc2S1(=O)=O | -5.3% (inactive)
O=c1c2ccc(F)cc2sn1-c1ccccc1 | 21.5% (inactive)
CC1=NOC(=O)/C1=C/c1ccc(-c2ccc(Cl)cc2)o1 | 16.5% (inactive)
CC(C)(c1ccccc1)c1ccc(OCC(O)CNC2CCN(Cc3ccccc3)CC2)cc1 (configuration not stated) | -13.5% (inactive)
COc1ccc(-c2cc(NC=O)c3ncc(-c4ccccc4)n3c2)cc1OC | -19.8% (inactive)
O=C(CN1C(=O)/C(=C\c2cccc(Br)c2)Oc2ccccc21)NCCCN1CCOCC1 | -3.6% (inactive)
O=C(Cn1sc2ccccc2c1=O)NC12CC3CC(CC(C3)C1)C2 | 29.8% (inactive)
CC1COCC(C)N1C1=C(Cl)C(=O)c2ccccc2C1=O (configuration not stated) | -52.7% (inactive)
CCCCC[C@@H](C)N1C[C@@H](COCc2ccccc2)Oc2cc(N3CC[C@H](N(C)C)C3)ccc2S1(=O)=O | 6.3% (inactive)
COc1ccc(-c2cc(NC=O)c3ncc(-c4cccc(OC)c4)n3c2)cc1 | -34.2% (inactive)
CCN(CC)CCCNc1ccc(-c2nnc(-c3ccc(OCC(C)C)cc3)o2)cn1 | -20.8% (inactive)
O=CNc1cc(-c2ccsc2)cn2c(-c3ccccc3)cnc12 | -19% (inactive)
